From patent US6872706B2, “Glucopyranosyloxybenzylbenzene derivatives and medicinal compositions containing the same” (Kissei Pharmaceutical Co., Ltd., priority 2000, dated 2005) come the findings set out here.

Series [1] can be described thus: Assay for the facilitatory effect on urinary glucose excretion. The series is classed as in vivo. The settings on record: non-fasted male SD rats, oral, urine collected 24 hours. How it is done:
Assay for the Facilitatory Effect on Urinary Glucose Excretion
As experimental animal, non-fasted SD rats (SLC. Inc., male, 8 weeks of age, 270-320 g) were used. A test compound was suspended in 0.5% sodium carboxymethylcellulose solution and 0.3, 1 and 3 mg/mL suspension were prepared. Adler the body weights of rats were measured, the test suspension was orally administered at the dose of 10 mL/kg (3, 10 and 30 mg/kg). For the control, just only 0.5% sodium carboxymethylcellulose solution was orally administered at the dose of 10 mL/kg. The oral administration was performed with gastric tube for rat and 2.5 mL syringe. The head count in one group was 5 or 6. Collection of urine was performed in metabolic cage after the oral administration was finished. The sampling time for collection of urine was 24 hours after the oral administration. After collection of urine was finished, the urine volume was recorded and the urinary glucose concentration was measured. The glucose concentration was measured with a kit for laboratory test: Glucose B-Test WAKO (Wako Pure Chemical Industries, Ltd.). The amount of urinary glucose excretion in 24 hours per 200 g of body weight was calculated from urine volume, urinary glucose concentration and body weight.

A further series in a line: Acute toxicity test. The series is classed as in vivo. The settings on record: male ICR mice, oral 600 mg/kg, until 24 hours after the administration, 5 animals in each group. How it is done:
Four weeks old male ICR mice (CLEA JAPAN, INC. 22-28 g, 5 animals in each group) were fasted for 4 hours, and 60 mg/mL of a suspension of a test compound in 0.5% sodium carboxymethylcellulose solution was orally administered at the dose of 10 mL/kg(600 mg/kg).

The target in another series is T1, human SGLT2 (Homo sapiens, UniProt P31639, I433V).
T1 construct: expressed in transfected cells; host or cells: COS-7 cells (RIKEN CELL BANK RCB0539), transient, electroporation
T1 sequence (P31639 1-672 I433V): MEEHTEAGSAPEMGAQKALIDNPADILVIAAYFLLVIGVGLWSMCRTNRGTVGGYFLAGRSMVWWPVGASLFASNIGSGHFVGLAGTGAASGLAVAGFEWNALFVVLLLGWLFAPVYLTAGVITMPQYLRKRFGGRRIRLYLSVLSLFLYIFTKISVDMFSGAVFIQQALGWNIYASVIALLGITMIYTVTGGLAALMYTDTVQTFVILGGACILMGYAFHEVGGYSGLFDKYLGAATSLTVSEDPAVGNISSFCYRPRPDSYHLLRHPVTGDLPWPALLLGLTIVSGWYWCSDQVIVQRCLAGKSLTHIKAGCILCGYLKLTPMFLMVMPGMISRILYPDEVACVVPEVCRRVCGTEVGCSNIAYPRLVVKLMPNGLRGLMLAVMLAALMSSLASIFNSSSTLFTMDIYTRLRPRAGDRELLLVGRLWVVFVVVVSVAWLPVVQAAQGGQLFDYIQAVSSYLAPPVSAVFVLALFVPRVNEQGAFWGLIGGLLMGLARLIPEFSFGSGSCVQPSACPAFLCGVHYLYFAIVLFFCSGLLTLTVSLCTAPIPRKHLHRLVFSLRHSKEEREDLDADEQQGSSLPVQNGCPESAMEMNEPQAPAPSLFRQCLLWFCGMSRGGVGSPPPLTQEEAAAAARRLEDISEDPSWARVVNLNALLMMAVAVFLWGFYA
The experiment in a line: Assay for inhibitory effect on human SGLT2 activity (uptake of methyl-α-D-glucopyranoside in COS-7 cells expressing transiently human SGLT2). In kind it is cell-based. To be noted: inhibition of methyl-α-D-(U-14C)glucopyranoside uptake, COS-7 cells expressing transiently human SGLT2, 37° C., 2 hours. On the procedure:
Assay for Inhibitory Effect on Human SGLT2 Activity
1) Construction of the Plasmid Vector Expressing Human SGLT2
Preparation of the cDNA library for PCR amplification was performed by reverse transcription of a total RNA deprived from human kidney (Ori gene) with oligo dT as the primer, using […] Preamplification System (Gibco-BRL: LIFE TECHNOLOGIES). […] The amplified DNA fragment was ligated into pCR-Blunt (Invitrogen), a vector for cloning, according to standard method of the kit. The competent cell, Escherichia coli HB101 (Toyobo), was transformed according to usual method and then selection of the transformants was performed on the LB agar medium containing 50 μg/mL of kanamycin. After the plasmid DNA was extracted and purified from the one of the transformants, amplifying of the DNA fragment coding for human SGLT2 was performed by the Pfu DNA Polymerase (Stratagene)-used PCR reaction, in which the following oligo nucleotides 0714F and 0715R, presented as Sequence Numbers 3 and 4 respectively, were used as the primers. The amplified DNA fragment was digested with restriction enzymes, Xho I and Hind III, and then purified with Wizard Purification System (Promega). This purified DNA fragment was inserted at the corresponding multi-cloning sites of pcDNA3.1 (−) Myc/His-B (Invitrogen), a vector for expressing of fusion protein. The competent cell, Escherichia coli HB101 (Toyobo), was transformed according to usual method and then selection of the transformant was performed on the LB agar medium containing 100 μg/mL of ampicillin. After the plasmid DNA was extracted and purified from this transformant, the base sequence of the DNA fragment inserted at the multi-cloning sites of pcDNA3.1 (−) Myc/His-B was analyzed. […] This plasmid vector expressing human SGLT2 in which the peptide presented as Sequence Number 5 is fused to the carboxyl terminal alanine residue was designated KL29.
2) Preparation of the Cells Expressing Transiently Human SGLT2
KL29, the plasmid coding human SGLT2, was transfected into COS-7 cells (RIKEN CELL BANK RCB0539) by electroporation. Electroporation was performed with GENE PULSER II (Bio-Rad Laboratories) under the condition: 0.290 kV, 975 μF, 2×10^6 cells of COS-7 cell and 20 μg of KL29 in 500 μL of OPTI-MEM I medium (Gibco-BRL: LIFE TECHNOLOGIES) in the 0.4 cm type cuvette. After the gene transfer, the cells were harvested by centrifugation and resuspended with OPTI-MEM I medium (1 mL/cuvette). To each well in 96-wells plate, 125 μL of this cell suspension was added. After overnight culture at 37° C. under 5% CO2, 125 μL of DMEM medium which is containing 10% of fetal bovine serum (Sanko Jyunyaku), 100 units/mL sodium penicillin G (Gibco-BRL: LIFE TECHNOLOGIES) and 100 μg/mL streptomycin sulfate (Gibco-BRL: LIFE TECHNOLOGIES) was added to each well. After a culture until the following day, these cells were used for the measurement of the inhibitory activity against the uptake of methyl-α-D-glucopyranoside.
3) Measurement of the Inhibitory Activity Against the Uptake of Methyl-α-D-Glucopyranoside
After a test compound was dissolved in dimethyl sulfoxide and diluted with the uptake buffer (a pH 7.4 buffer containing 140 mM sodium chloride, 2 mM potassium chloride, 1 mM calcium chloride, 1 mM magnesium chloride, 5 mM methyl-α-D-glucopyranoside, 10 mM 2-[4-(2-hydroxyethyl)-1-piperazinyl]ethane sulfonic acid and 5 mM tris (hydroxymethyl) aminomethane), each diluent was used as test sample for measurement of the inhibitory activity.

As to `CCOC(=O)OC[C@H]1O[C@@H](Oc2ccccc2Cc2ccc(OC)cc2)[C@H](O)[C@@H](O)[C@@H]1O` [Example 1, 2-(4-Methoxybenzyl)phenyl 6-O-ethoxycarbonyl-β-D-glucopyranoside], the “Amount of Urinary Glucose Excretion” value in series [1] (dose 3 mg/kg) is on record as 52 mg/24 hours · 200 g body weight; in series [1] (dose 10 mg/kg) it was 239 mg/24 hours · 200 g body weight; in series [1] (dose 30 mg/kg), 513 mg/24 hours · 200 g body weight. For the same molecule, the Death number in “Acute toxicity test” is on record as 0/5.
As a reminder, the IC50 is the concentration that gives 50% inhibition. On to `COc1ccc(Cc2ccccc2O[C@@H]2O[C@H](CO)[C@@H](O)[C@H](O)[C@H]2O)cc1` [Reference Example 11, 2-(4-Methoxybenzyl)phenyl β-D-glucopyranoside], for which the half-maximal inhibitory concentration (IC50) against human SGLT2 amounted to 350 nM.
On the same count and under the same terms, under `CCc1ccc(Cc2ccccc2O[C@@H]2O[C@H](CO)[C@@H](O)[C@H](O)[C@H]2O)cc1` [Reference Example 13, 2-(4-Ethylbenzyl)phenyl β-D-glucopyranoside] stands 140 nM; under `CC(C)Cc1ccc(Cc2ccccc2O[C@@H]2O[C@H](CO)[C@@H](O)[C@H](O)[C@H]2O)cc1` [Reference Example 14, 2-(4-Isobutylbenzyl)phenyl β-D-glucopyranoside], 500 nM.
Turning to `CCOc1ccc(Cc2ccccc2O[C@@H]2O[C@H](CO)[C@@H](O)[C@H](O)[C@H]2O)cc1` [Reference Example 15, 2-(4-Ethoxybenzyl)phenyl β-D-glucopyranoside], the concentration for half-maximal inhibition (IC50) on human SGLT2 is 330 nM.
Still for that read-out and setting: under `CC(C)Oc1ccc(Cc2ccccc2O[C@@H]2O[C@H](CO)[C@@H](O)[C@H](O)[C@H]2O)cc1` [Reference Example 16, 2-(4-Isopropoxybenzy)phenyl β-D-Glucopyranoside] stands 370 nM; under `CCSc1ccc(Cc2ccccc2O[C@@H]2O[C@H](CO)[C@@H](O)[C@H](O)[C@H]2O)cc1` [Reference Example 17, 2-(4-Ethylthiobenzyl)phenyl β-D-glucopyranoside], 110 nM.
